pIC50: −log10 of the molar value.
What was measured:
[1] = target: T1, Cbl-b (aa36-427) (Homo sapiens, UniProt Q13191); assay: Co-expressed Cbl-b with BirA biochemical assay (CBLB/E2-Ub binding, HTRF); settings: 0.6 nM Cbl-b co-expressed with BirA, HTRF; read-out: co-express CBLB/E2-Ub-binding assay IC50
T1 construct: Cbl-b (aa36-427, in-house); made in house
Description: (§1) The assay in the absence of a Cbl-b/Cbl inhibitor, where phosphorylation of Cbl-b/Cbl by the Src kinase allows UbcH5B-Ub to bind to Cbl-b/Cbl and brings the Bodipy-Fluorescein tagged ubiquitin in proximity to the streptavidin-terbium bound to the N-terminal biotinylated Avi-tagged Cbl-b/Cbl. […] The lack of a FRET signal indicates Cbl-b/Cbl is inhibited by the Cbl-b/Cbl inhibitor.

[2] = target: T2, Cbl (aa49-434) (Homo sapiens, UniProt P22681); assay: Co-expressed Cbl with BirA biochemical assay (CBL/E2-Ub binding, HTRF); settings: 0.6 nM Cbl co-expressed with BirA, read-out: co-express CBL/E2-Ub-binding assay IC50
T2 construct: Cbl (aa49-434, in-house); made in house
T2 sequence (P22681 49-434): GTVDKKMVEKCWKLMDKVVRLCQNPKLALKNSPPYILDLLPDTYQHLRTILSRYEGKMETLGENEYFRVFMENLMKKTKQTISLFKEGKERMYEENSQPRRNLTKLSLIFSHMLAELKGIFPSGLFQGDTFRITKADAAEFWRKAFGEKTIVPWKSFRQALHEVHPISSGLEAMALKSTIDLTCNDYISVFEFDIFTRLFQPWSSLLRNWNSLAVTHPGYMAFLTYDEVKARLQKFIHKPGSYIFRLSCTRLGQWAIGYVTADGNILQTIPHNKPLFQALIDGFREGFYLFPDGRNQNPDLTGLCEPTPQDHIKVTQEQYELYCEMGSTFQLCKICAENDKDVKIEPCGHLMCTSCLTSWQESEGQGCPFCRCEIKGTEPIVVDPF
Description: as §1

T1 sequence (Q13191 36-427): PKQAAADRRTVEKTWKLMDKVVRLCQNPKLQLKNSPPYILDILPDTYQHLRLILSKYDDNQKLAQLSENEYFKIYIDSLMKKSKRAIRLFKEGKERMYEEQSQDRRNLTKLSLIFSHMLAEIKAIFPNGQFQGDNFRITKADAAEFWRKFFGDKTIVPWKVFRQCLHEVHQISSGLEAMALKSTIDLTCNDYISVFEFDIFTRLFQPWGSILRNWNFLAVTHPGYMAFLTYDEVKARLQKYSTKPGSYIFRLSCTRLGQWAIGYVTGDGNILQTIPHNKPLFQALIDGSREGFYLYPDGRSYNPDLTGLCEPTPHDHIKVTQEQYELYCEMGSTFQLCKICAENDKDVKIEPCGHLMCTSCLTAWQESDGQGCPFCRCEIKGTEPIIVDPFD

SMILES	pIC50 [1]	pIC50 [2]
Cn1ccc2nc(C(=O)Nc3cccc([C@]4(c5nncn5C)C[C@@H](CC#N)C4)c3)cc(CNC3(C)CCC3)c21 [Compound B56, N-(3-((1s, 3s)-3-(cyanomethyl)-1-(4-methyl-4H-1,2,4-triazol-3-yl)cyclobutyl)phenyl)-1-methyl-7-(((1-methylcyclobutyl)amino)methyl)-1H-pyrrolo[3,2-b]pyridine-5-carboxamide]	8.85	7.49
C[C@H](NCc1cc(C(=O)Nc2cccc([C@]3(c4nncn4C)C[C@@H](C)C3)c2)c2ncc(F)n2c1)C1CC1 [Compound A19, 6-((((S)-1-cyclopropylethyl)amino)methyl)-3-fluoro-N-(3-((1s,3R)-3-methyl-1-(4-methyl-4H-1,2,4-triazol-3-yl)cyclobutyl)phenyl)imidazo[1,2-a]pyridine-8-carboxamide]	8.77	8.09
Cn1cnnc1[C@]1(c2cccc(NC(=O)c3cc(CNCC4CCC4)c4[nH]ccc4n3)c2)C[C@H](C)C1 [Compound B32, 7-(((cyclobutylmethyl)amino)methyl)-N-(3-((1s, 3s)-3-methyl-1-(4-methyl-4H-1,2,4-triazol-3-yl)cyclobutyl)phenyl)-1H-pyrrolo[3,2-b]pyridine-5-carboxamide]	9.00	8.82
C[C@H](NCc1cc(C(=O)Nc2cccc([C@]3(c4nncn4C)C[C@@H](CC#N)C3)c2)c2nccn2c1)C1CCCC1 [Compound A31, N-(3-((1s,3R)-3-(cyanomethyl)-1-(4-methyl-4H-1,2,4-triazol-3-yl)cyclobutyl)phenyl)-6-((((S)-1-cyclopentylethyl)amino)methyl)imidazo[1,2-a]pyridine-8-carboxamide]	9.15	8.89
CC(C)CNCc1cc(C(=O)Nc2cccc([C@]3(c4nncn4C)C[C@@H](C)C3)c2)c2nccn2c1 [Compound A18, 6-((isobutylamino)methyl)-N-(3-((1s, 3s)-3-methyl-1-(4-methyl-4H-1,2,4-triazol-3-yl)cyclobutyl)phenyl)imidazo[1,2-a]pyridine-8-carboxamide]	8.96	8.22
C[C@@H]1CN(Cc2cc(C(=O)Nc3cncc([C@]4(c5nncn5C)C[C@@H](C)C4)c3)c3nccn3c2)CC[C@@H]1F [Compound A54, 6-(((3R,4S)-4-fluoro-3-methylpiperidin-1-yl)methyl)-N-(5-((1s,3S)-3-methyl-1-(4-methyl-4H-1,2,4-triazol-3-yl)cyclobutyl)pyridin-3-yl)imidazo[1,2-a]pyridine-8-carboxamide]	8.72	8.22
C[C@H](NCc1cc(C(=O)Nc2cccc([C@]3(Cc4nncn4C)C[C@@H](C#N)C3)c2)c2nccn2c1)C1CCCC1 [Compound A33, N-(3-((1r,3S)-3-cyano-1-((4-methyl-4H-1,2,4-triazol-3-yl)methyl)cyclobutyl)phenyl)-6-((((S)-1-cyclopentylethyl)amino)methyl)imidazo[1,2-a]pyridine-8-carboxamide]	8.82	8.96
C[C@H](NCc1cc(C(=O)Nc2cccc([C@]3(c4nncn4C)C[C@@H](C)C3)c2)nc2cc[nH]c12)C1CC1 [Compound B3, 7-((((S)-1-cyclopropylethyl)amino)methyl)-N-(3-((1s,3R)-3-methyl-1-(4-methyl-4H-1,2,4-triazol-3-yl)cyclobutyl)phenyl)-1H-pyrrolo[3,2-b]pyridine-5-carboxamide]	9.15	8.74
Cc1cnc2c(C(=O)Nc3cccc([C@]4(c5nncn5C)C[C@@H](C)C4)c3)cc(CN[C@@H](C)C3CCC3)cn12 [Compound A60, 6-((((S)-1-cyclobutylethyl)amino)methyl)-3-methyl-N-(3-((1s,3R)-3-methyl-1-(4-methyl-4H-1,2,4-triazol-3-yl)cyclobutyl)phenyl)imidazo[1,2-a]pyridine-8-carboxamide]	9.30	8.96
C[C@H]1CCCN(Cc2cc(C(=O)Nc3cccc([C@]4(c5nncn5C)C[C@@H](CC#N)C4)c3)nc3cc[nH]c23)C1 [Compound B5, N-(3-((1s,3R)-3-(cyanomethyl)-1-(4-methyl-4H-1,2,4-triazol-3-yl)cyclobutyl)phenyl)-7-(((S)-3-methylpiperidin-1-yl)methyl)-1H-pyrrolo[3,2-b]pyridine-5-carboxamide]	8.80	7.80
CC(C)CNCc1cc(C(=O)Nc2cccc([C@]3(c4nncn4C)C[C@@H](C)C3)c2)nc2cc[nH]c12 [Compound B1, 7-((isobutylamino)methyl)-N-(3-((1s, 3s)-3-methyl-1-(4-methyl-4H-1,2,4-triazol-3-yl)cyclobutyl)phenyl)-1H-pyrrolo[3,2-b]pyridine-5-carboxamide]	9.15	8.68
Cn1ccc2c(CNCC3CCC3)cc(C(=O)Nc3cccc([C@]4(c5nncn5C)C[C@@H](C)C4)c3)nc21 [Compound B45, 4-(((cyclobutylmethyl)amino)methyl)-1-methyl-N-(3-((1s, 3s)-3-methyl-1-(4-methyl-4H-1,2,4-triazol-3-yl)cyclobutyl)phenyl)-1H-pyrrolo[2,3-b]pyridine-6-carboxamide]	8.77	7.78
Cc1cnc2c(C(=O)Nc3cncc([C@]4(c5nncn5C)C[C@@H](C)C4)c3)cc(CN[C@@H](C)C3CC3)cn12 [Compound A64, 6-((((S)-1-cyclopropylethyl)amino)methyl)-3-methyl-N-(5-((1s,3R)-3-methyl-1-(4-methyl-4H-1,2,4-triazol-3-yl)cyclobutyl)pyridin-3-yl)imidazo[1,2-a]pyridine-8-carboxamide]	8.66	7.59
C[C@H](NCc1cc(C(=O)Nc2cccc([C@]3(c4nncn4C)C[C@@H](C)C3)c2)nc2c(F)c[nH]c12)C1CC1 [Compound B37, 7-((((S)-1-cyclopropylethyl)amino)methyl)-3-fluoro-N-(3-((1s,3R)-3-methyl-1-(4-methyl-4H-1,2,4-triazol-3-yl)cyclobutyl)phenyl)-1H-pyrrolo[3,2-b]pyridine-5-carboxamide]	9.10	8.35

Second part, the compound after the results:

pIC50 [1]	pIC50 [2]	SMILES
8.77	8.28	Cn1cnnc1[C@]1(c2cccc(NC(=O)c3cc(CNCC4CCC(F)(F)C4)c4c(n3)C(C)(C)CC4)c2)C[C@H](CC#N)C1 (stereo partly shown) [Compound C16, N-(3-((1s, 3s)-3-(cyanomethyl)-1-(4-methyl-4H-1,2,4-triazol-3-yl)cyclobutyl)phenyl)-4-((((3,3-difluorocyclopentyl)methyl)amino)methyl)-7,7-dimethyl-6,7-dihydro-5H-cyclopenta[b]pyridine-2-carboxamide]
9.15	8.74	C[C@H](NCc1cc(C(=O)Nc2cccc([C@]3(c4nncn4C)C[C@@H](C)C3)c2)nc2c1NCC2(C)C)C1CCC1 [Compound C46, 7-({[(1S)-1-cyclobutylethyl]amino}methyl)-3,3-dimethyl-N-{3-[(1r, 3s)-3-methyl-1-(4-methyl-1,2,4-triazol-3-yl)cyclobutyl]phenyl}-1H,2H-pyrrolo[3,2-b]pyridine-5-carboxamide]
8.57	8.22	C[C@H]1CCCN(Cc2cc(C(=O)Nc3cccc([C@]4(c5nncn5C)C[C@@H](CC#N)C4)c3)nc3c2NCC32CC2)C1 [Compound C19, N-(3-((1s,3R)-3-(cyanomethyl)-1-(4-methyl-4H-1,2,4-triazol-3yl)cyclobutyl)phenyl)-7′-(((S)-3-methylpiperidin-1-yl)methyl)-1′,2′-dihydrospiro[cyclopropane-1,3′-pyrrolo[3,2-b]pyridine]-5′-carboxamide]
8.20	7.00	Cn1cnnc1[C@]1(c2cccc(NC(=O)c3cc(CNC4(C)CCC4)c4c(n3)C(C)(C)CO4)c2)C[C@H](CC#N)C1 [Compound C23, N-(3-((1s, 3s)-3-(cyanomethyl)-1-(4-methyl-4H-1,2,4-triazol-3-yl)cyclobutyl)phenyl)-3,3-dimethyl-7-(((1-methylcyclobutyl)amino)methyl)-2,3-dihydrofuro[3,2-b]pyridine-5-carboxamide]
8.96	8.72	C[C@@H]1CN(Cc2cc(C(=O)Nc3cccc([C@]4(c5nncn5C)C[C@@H](C)C4)c3)nc3c2CCC3(C)C)CC[C@@H]1F [Compound C55, 4-(((3R,4S)-4-fluoro-3-methylpiperidin-1-yl)methyl)-7,7-dimethyl-N-(3-((1s,3S)-3-methyl-1-(4-methyl-4H-1,2,4-triazol-3-yl)cyclobutyl)phenyl)-6,7-dihydro-5H-cyclopenta[b]pyridine-2-carboxamide]
8.70	8.18	Cn1cnnc1[C@]1(c2cccc(NC(=O)c3cc(CNCC4CCCCC4)c4c(n3)C(C)(C)CC4)c2)C[C@H](CC#N)C1 [Compound C14, N-(3-((1s, 3s)-3-(cyanomethyl)-1-(4-methyl-4H-1,2,4-triazol-3-yl)cyclobutyl)phenyl)-4-(((cyclohexylmethyl)amino)methyl)-7,7-dimethyl-6,7-dihydro-5H-cyclopenta[b]pyridine-2-carboxamide]

Source: patent US20250163047A1, “HETEROCYCLIC COMPOUNDS, COMPOSITIONS THEREOF, AND METHODS OF TREATMENT THEREWITH” (BeiGene, Ltd., priority 2022, published 2025)
